Measurements reported in patent publication US6380263B1, “6-substituted pyrimidine 3-oxides for promoting pigmentation of the skin/hair” (Societe L'Oreal, priority 1996, dated 2002).

system: purified fungal tyrosinase (EC 1.14.18.1); test: Modulation of tyrosinase activity (dopachrome formation from L-tyrosine, spectrophotometry at 475 nm); type: biochemical; details: 100 μl of 1 mM derivative solution (PBS/1% ethanol) in 1000 μl mixture; substrate L-tyrosine; 37° C.; at least 30 minutes
Description: In order to determine the activity of the pyrimidine derivatives substituted in position 6, the simple and rapid technique is employed that entails measurement by incubating an optionally purified tyrosinase and one of its substrates in a suitable medium in the presence of a test compound, and then comparing the measurements taken with the results of identical measurements taken during the incubation of optionally purified tyrosinase with one of its substrates in the absence of the test compound.
A purified tyrosinase was incubated in the presence of one of its substrates in a suitable medium, in the presence or absence of a pyrimidine 3-oxide derivative, substituted in position 6. The activity of the enzyme was evaluated by measuring the amount of a product of conversion of the substrate formed during the reaction. The result obtained in the presence of a derivative was compared with the result obtained in the absence of a derivative.
The substrate used was L-tyrosine (marketed by Sigma), a stock solution of which was prepared in phosphate-buffered saline (PBS) at a concentration of 0.5 mM.
The enzyme used was a purified fungal tyrosinase (EC 1.14.18.1) marketed by Sigma. A stock solution of this enzyme was prepared in PBS at a concentration of 5 mg/ml, which represents a concentration of about 19,500 international units of tyrosinase per milliliter.
The product of conversion of the tyrosine by tyrosinase, dopachrome, was measured by spectrophotometry at a wavelength of 475 nm using a Perkin Elmer type apparatus.
The derivative to be tested was prepared in solution in PBS containing 1% ethanol at a concentration of 1 mM.
The following reagents were mixed together in a spectrophotometer cell:
500 μl of tyrosine solution,
390 μl of phosphate buffer,
10 μl of fungal tyrosinase solution,
100 μl of solution of test derivative or of PBS/1% ethanol (control).
The mixture was then incubated at a temperature of 37° C. and the dopachrome formed was measured continuously for at least 30 minutes.
The results obtained are expressed as a % of activation of the tyrosinase activity relative to the value obtained with the control (in the absence of derivative).

SMILES | Activation (% of activation of the tyrosinase activity relative to the control) [%]
CCNc1cc(N(C)C)nc(NCC)[n+]1[O-] [2,4-bis-ethylamino-6-dimethylaminopyrimidine 3-oxide] | 60
CNc1cc(N(C)C)nc(NC)[n+]1[O-] [2,4-bis-methylamino-6-dimethylaminopyrimidine 3-oxide] | 61
CCCNc1cc(N(C)C)nc(NCCC)[n+]1[O-] [2,4-bis-propylamino-6-dimethylaminopyrimidine 3-oxide] | 55
CCCNc1cc(N2CCCCC2)nc(NCCC)[n+]1[O-] [2,4-bis-propylamino-6-piperidinopyrimidine 3-oxide] | 57
Nc1nc(N2CCCCC2)cc(NCCO)[n+]1[O-] [2-amino-4-(2-hydroxyethylamino)-6-piperidinopyrimidine 3-oxide] | 43
Nc1nc(N2CCCCC2)cc(NCc2ccccc2)[n+]1[O-] [2-amino-4-benzylamino-6-piperidinopyrimidine 3-oxide] | 45
CCCCNc1cc(N(C)C)nc(N)[n+]1[O-] [2-amino-4-butylamino-6-dimethylaminopyrimidine 3-oxide] | 51
CCCCCCNc1cc(N2CCCCC2)nc(N)[n+]1[O-] [2-amino-4-hexylamino-6-piperidinopyrimidine 3-oxide] | 47
CC(C)Nc1cc(N(C)C)nc(N)[n+]1[O-] [2-amino-4-isopropylamino-6-dimethylaminopyrimidine 3-oxide] | 46
CNc1cc(N2CCCCC2)nc(N)[n+]1[O-] [2-amino-4-methylamino-6-piperidinopyrimidine 3-oxide] | 50
CCCNc1cc(N(C)C)nc(N)[n+]1[O-] [2-amino-4-propylamino-6-dimethylaminopyrimidine 3-oxide] | 50
CCCNc1cc(N2CCCCC2)nc(N)[n+]1[O-] [2-amino-4-propylamino-6-piperidinopyrimidine 3-oxide] | 46
Nc1cc(N2CCCCC2)nc(N)[n+]1[O-] [Minoxidil, 2,4-diamino-6-piperidinopyrimidine 3-oxide, reference compound] | 41

system: hair pigmentation; test: not given; details: bald men treated with this compound; cited from earlier work

SMILES | effect on hair pigmentation
Nc1cc(N2CCCCC2)nc(N)[n+]1[O-] [Minoxidil, 2,4-diamino-6-piperidinopyrimidine 3-oxide, reference compound] | stimulatory effect on hair pigmentation
